Results on ten molecules are retold here after US20250346585A1 (Alexion Pharmaceuticals, Inc., priority 2022, published 2025).

Broadly, the IC50 is the point on the concentration scale where inhibition reaches its midpoint.

Each structure is given as a SMILES string.

Chain of Human complement C1s enzyme (P09871 438-688 limits assumed): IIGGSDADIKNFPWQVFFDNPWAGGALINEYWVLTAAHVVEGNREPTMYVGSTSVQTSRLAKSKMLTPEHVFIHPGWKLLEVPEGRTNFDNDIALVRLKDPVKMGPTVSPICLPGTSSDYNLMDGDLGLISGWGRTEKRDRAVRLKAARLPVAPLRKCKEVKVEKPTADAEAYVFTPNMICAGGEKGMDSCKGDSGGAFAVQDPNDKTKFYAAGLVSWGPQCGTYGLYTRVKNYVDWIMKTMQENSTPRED
Chain of Human complement C1s enzyme (P09871 16-437 partner limits assumed): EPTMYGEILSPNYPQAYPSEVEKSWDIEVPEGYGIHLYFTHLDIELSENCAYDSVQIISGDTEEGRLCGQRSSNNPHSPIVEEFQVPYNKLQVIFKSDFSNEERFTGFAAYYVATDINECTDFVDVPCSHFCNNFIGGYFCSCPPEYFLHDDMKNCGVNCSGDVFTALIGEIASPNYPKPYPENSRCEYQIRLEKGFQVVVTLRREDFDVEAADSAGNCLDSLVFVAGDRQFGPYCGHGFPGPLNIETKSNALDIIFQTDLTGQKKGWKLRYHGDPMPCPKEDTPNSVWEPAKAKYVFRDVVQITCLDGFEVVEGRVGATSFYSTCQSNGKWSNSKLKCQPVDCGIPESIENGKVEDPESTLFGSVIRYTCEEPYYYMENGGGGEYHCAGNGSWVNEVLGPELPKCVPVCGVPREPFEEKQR

The experiment concerns the target Human complement C1s enzyme (Homo sapiens (Human), UniProt P09871). Nature of the experiment: Human C1s enzyme assay. It is filed as biochemical. To be noted: Human complement C1s enzyme 1.16 nM, substrate Z-L-Lys-SBzl 100 μM, assay of Example 3; read-out: IC50 (Stars). A digest of the protocol:
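Purified serum-derived human C1s (1.16 nM final) preincubated 5 min at room temperature with compound in 50 mM Tris, 1 M NaCl, pH 7.5. Z-L-Lys-SBzl thioester substrate and DTNB added (100 μM each, final); A405 read every 30 s for 30 min. IC50 from nonlinear regression of reaction rates against compound concentration.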
For `CO[C@@H]1C[C@@H](C(=O)N[C@H](C)c2cc(C(=N)N)cs2)N(C(=O)CNC(=O)c2ccc3cc4ccccc4cc3c2)C1` [Compound 278, (2S,4R)-1-((anthracene-2-carbonyl)glycyl)-N—((R)-1-(4-carbamimidoylthiophen-2-yl)ethyl)-4-methoxypyrrolidine-2-carboxamide], the IC50 is < 100 nM.

Turning to `C[C@@H](NC(=O)[C@@H]1CC2(CN1C(=O)CNC(=O)c1ccc3c(c1)oc1ccccc13)OCCO2)c1cc(C(=N)N)cs1` [Compound 279, (S)—N—((R)-1-(4-carbamimidoylthiophen-2-yl)ethyl)-7-((dibenzo[b,d]furan-3-carbonyl)glycyl)-1,4-dioxa-7-azaspiro[4.4]nonane-8-carboxamide], the half-maximal inhibitory concentration (IC50) is < 100 nM.

On to `CC(C)S(=O)(=O)[C@@H]1C[C@@H](C(=O)N[C@H](C)c2cc(C(=N)N)cs2)N(C(=O)CNC(=O)c2ccc3c(c2)-c2ccccc2C3(F)F)C1` [Compound 280, (2S,4R)—N—((R)-1-(4-carbamimidoylthiophen-2-yl)ethyl)-1-((9,9-difluoro-9H-fluorene-3-carbonyl)glycyl)-4-(isopropylsulfonyl)pyrrolidine-2-carboxamide], for which the IC50 is < 100 nM.

For `C[C@@H](NC(=O)[C@@H]1C[C@]2(Cn3cncn3)C[C@@H]2N1C(=O)CNC(=O)c1ccc2c(c1)-c1ccccc1C2(F)F)c1cc(C(=N)N)cs1` [Compound 281, (1S,3S,5S)-5-((1H-1,2,4-triazol-1-yl)methyl)-N—((R)-1-(4-carbamimidoylthiophen-2-yl)ethyl)-2-((9,9-difluoro-9H-fluorene-3-carbonyl)glycyl)-2-azabicyclo[3.1.0]hexane-3-carboxamide], the IC50 was < 100 nM.

For `O=C(NCC(=O)N1CC2(C[C@H]1C(=O)NCc1cc(Nc3nccs3)cs1)OCCO2)c1ccc(Oc2ccc(F)cc2)cc1` [Compound 282, (S)-7-((4-(4-fluorophenoxy)benzoyl)glycyl)-N-((4-(thiazol-2-ylamino)thiophen-2-yl)methyl)-1,4-dioxa-7-azaspiro[4.4]nonane-8-carboxamide], the IC50 is > 1000 nM.

As for `O=C(NCC(=O)N1CC2(C[C@H]1C(=O)NCc1cc(Nc3ncc[nH]3)cs1)OCCO2)c1ccc(Oc2ccc(F)cc2)cc1` [Compound 283, (S)-N-((4-((1H-imidazol-2-yl)amino)thiophen-2-yl)methyl)-7-((4-(4-fluorophenoxy)benzoyl)glycyl)-1,4-dioxa-7-azaspiro[4.4]nonane-8-carboxamide], the IC50 was > 1000 nM.

As for `O=C(NCC(=O)N1CC2(C[C@H]1C(=O)NCc1cc(NC3=NCCS3)cs1)OCCO2)c1ccc(Oc2ccc(F)cc2)cc1` [Compound 284, (S)-N-((4-((4,5-dihydrothiazol-2-yl)amino)thiophen-2-yl)methyl)-7-((4-(4-fluorophenoxy)benzoyl)glycyl)-1,4-dioxa-7-azaspiro[4.4]nonane-8-carboxamide], the IC50 is > 1000 nM.

In the case of `Nc1cccc(Nc2csc(CNC(=O)[C@@H]3CC4(CN3C(=O)CNC(=O)c3ccc(Oc5ccc(F)cc5)cc3)OCCO4)c2)n1` [Compound 285, (S)-N-((4-((6-aminopyridin-2-yl)amino)thiophen-2-yl)methyl)-7-((4-(4-fluorophenoxy)benzoyl)glycyl)-1,4-dioxa-7-azaspiro[4.4]nonane-8-carboxamide], the IC50 was > 1000 nM.

For the molecule `CS(=O)(=O)N(c1csc(CNC(=O)[C@@H]2CC3(CN2C(=O)CNC(=O)c2ccc(Oc4ccc(F)cc4)cc2)OCCO3)c1)S(C)(=O)=O` [Compound 286, (S)-7-((4-(4-fluorophenoxy)benzoyl)glycyl)-N-((4-((N-(methylsulfonyl)methyl)sulfonamido)thiophen-2-yl)methyl)-1,4-dioxa-7-azaspiro[4.4]nonane-8-carboxamide], the IC50 was > 1000 nM.

Consider `N=C(N)c1csc(CNC(=O)[C@@H]2CC3(CN2C(=O)CN2Cc4ccc(-c5ccc(F)cc5F)cc4C2)OCCO3)c1` [Compound 287, (S)—N-((4-carbamimidoylthiophen-2-yl)methyl)-7-(2-(5-(2,4-difluorophenyl)isoindolin-2-yl)acetyl)-1,4-dioxa-7-azaspiro[4.4]nonane-8-carboxamide], for which the IC50 is < 100 nM.
